In US20110275667A1, “COMPOSITIONS USEFUL FOR TREATING GASTROESOPHAGEAL REFLUX DISEASE” (EDUSA Pharmaceuticals, Inc., priority 2007, published 2011):
Read-outs that look alike come from different tables or passages of the source.

Columns and labels:
healthy volunteers [1] = experiment: Phase 1b crossover clinical trial: reflux events measured by multichannel intraluminal impedance and pH (MII-pH) after a refluxogenic meal; type: in vivo, human
Method: The clinical trial reported here was a Phase 1b, randomized, double-blind placebo-controlled, crossover study. In the Study, 28 healthy volunteers were administered doses of DDP733 (0.5, 0.8 and 1.4 mg) and placebo and then given a refluxogenic meal. For a period of two hours after completion of the refluxogenic meal, reflux events were measured using intraesophageal impedance.
Phase 1b, randomized, double-blinded, placebo controlled, crossover study.
Three Study Periods: Total Number of Visits=4 • (1) Ten-day screening period (2 visits); • (2) Two week treatment period (Days 1-14) (2 visits: Day 1 which is on the same day as the second screening visit, and Day 8); and • (3) One day end of study period (1 visit).
Subjects were randomized into a treatment group on Day 1 (the same day as visit 2 of the screening period). For the completed study, each subject was exposed to one of the dose levels of DDP733 (i.e., 0.5 mg, 0.8 mg and 1.4 mg) and to placebo in randomized sequence to complete approximately one week of dosing with each of the two dosing regimens (DDP733 and placebo). The six treatment sequences were:
For example, there were 7 subjects in the study who received the 0.5 mg dose of DDP733. At the commencement of dosing period 1, three subjects in the 0.5 mg group received placebo and 4 subjects received 0.5 mg of drug. […]
(§1) After randomization, subjects received a first dose of study medication (Day 1). The medication was administered under supervision and the subjects were then evaluated by manometry to assess LES position and pressure and by a multichannel intraluminal impedance and pH (MII-pH) procedures to measure the number of reflux events following ingestion of a refluxogenic meal (sausage and egg breakfast sandwich and 8 oz. cup of coffee). […]
• Primary: Reduction in esophageal reflux during a provocative procedure (following a refluxogenic meal) as measured by MII-pH; • Secondary: • (a) Change in reflux related symptoms (heartburn, regurgitation, acid taste) associated with ingestion of a refluxogenic meal; and • (b) Change in lower esophageal sphincter pressure. […]

healthy volunteers [2] = experiment: Phase 1b clinical trial: lower esophageal sphincter pressure (LESP) by manometry; type: in vivo, human; settings: 0.5 mg, 0.8 mg and 1.4 mg
Method: as §1, with “coffee). The supervised dose was the only dose administered on this initial day of testing (Day 1). Subjects continued dosing for a further five day, then had one day with no study medication before returning for the next visit on Day 8. The same procedure was performed on Day 8 of the treatment period (i.e., the first day of the second dosing period).” for “coffee).”
(§2) • Primary: Reduction in esophageal reflux during a provocative procedure (following a refluxogenic meal) as measured by MII-pH; • Secondary: • (a) Change in reflux related symptoms (heartburn, regurgitation, acid taste) associated with ingestion of a refluxogenic meal; and • (b) Change in lower esophageal sphincter pressure.

healthy volunteers [3] = experiment: Phase 1b clinical trial: reflux related symptoms (heartburn, regurgitation, acid taste) associated with refluxogenic meal; type: in vivo, human; settings: 0.5 mg, 0.8 mg and 1.4 mg
Method: In addition to assessment of the LESP and number of reflux events, subjects were also assessed on Days 1 and 8 to determine the frequency of the following symptoms: heartburn; regurgitation; and acid taste associated with the refluxogenic meal.
as §2

healthy volunteers [4] = experiment: Phase 1b clinical trial: safety and tolerability (vital signs, adverse events, clinical laboratory testing, ECGs); type: in vivo, human
From the text: Characterize the safety and tolerability of DDP733 in volunteers.
Safety measurements included monitoring of vital signs and adverse events, clinical laboratory testing and performance of electrocardiograms (ECGs).

Humans = settings: cited from earlier work
gastric acid = settings: cited from earlier work

**Q.** What does the source list for `O=C(N[C@H]1CN2CCC1CC2)c1c[nH]c2ccsc2c1=O` [DDP733, (R)—N-1-azabicyclo[2.2.2]oct-3-yl-4,7-dihydro-7-oxothieno[3,2-b]pyridine-6-carboxamide]?
**A.** statistical significance on primary clinical endpoint of reduction in the number of reflux events versus placebo (healthy volunteers [1]; 0.5 mg dose, p=0.0313, Wilcoxon signed-rank test): achieved statistical significance; reduction in the number of reflux events versus placebo (healthy volunteers [1]; 0.8 mg dose): did not show a statistically significant reduction; reduction in the number of reflux events versus placebo (healthy volunteers [1]; 1.4 mg dose): did not show a statistically significant reduction; LESP versus placebo (secondary endpoint) (healthy volunteers [2]): no statistically significant differences; reflux related symptoms versus placebo (secondary endpoint) (healthy volunteers [3]): no statistically significant differences; adverse events (AEs) leading to discontinuation (healthy volunteers [4]; all doses): no adverse events (AEs) leading to discontinuation; significant adverse events (SAEs) (healthy volunteers [4]; all doses): no significant adverse events (SAEs) reports; safety and tolerability (healthy volunteers [4]; all doses (0.5, 0.8, 1.4 mg)): safe and well tolerated; time to resolution of drug related adverse events (healthy volunteers [4]; did not require medication): 1 to 5 days; liver or cardiac abnormalities (healthy volunteers [4]; human, in vivo): No liver or cardiac abnormalities were observed; severity of drug related adverse events (nausea, vomiting, pruritus, rash, rash macular, flush/hot flush, abdominal pain/discomfort) (healthy volunteers [4]; human, in vivo): mild/moderate; effect on increasing gastric emptying (Humans; 0.2 mg dose): no significant effect; effect on the fundus (Humans; 0.2 mg dose): no significant effect; effect on increasing gastric emptying (Humans; 1.0 mg dose): no significant effect; effect on the fundus (Humans; 1.0 mg dose): no significant effect; effect on gastric emptying (Humans; 4.0 mg dose): delays gastric emptying; effect on the fundus (Humans; 4.0 mg dose): relaxes the fundus; gastric acid suppressing activity (gastric acid): has gastric acid suppressing activity
